Measured values reported in PMC6274180, “Investigating Glycol-Split-Heparin-Derived Inhibitors of Heparanase: A Study of Synthetic Trisaccharides” (Molecules, 2016).

Target: T1, heparanase (Homo sapiens, UniProt Q9Y251)
T1 construct: gene HPSE
T1 sequence (Q9Y251 36-109): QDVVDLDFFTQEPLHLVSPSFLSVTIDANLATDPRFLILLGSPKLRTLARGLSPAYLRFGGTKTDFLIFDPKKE
T1 sequence (Q9Y251 158-543): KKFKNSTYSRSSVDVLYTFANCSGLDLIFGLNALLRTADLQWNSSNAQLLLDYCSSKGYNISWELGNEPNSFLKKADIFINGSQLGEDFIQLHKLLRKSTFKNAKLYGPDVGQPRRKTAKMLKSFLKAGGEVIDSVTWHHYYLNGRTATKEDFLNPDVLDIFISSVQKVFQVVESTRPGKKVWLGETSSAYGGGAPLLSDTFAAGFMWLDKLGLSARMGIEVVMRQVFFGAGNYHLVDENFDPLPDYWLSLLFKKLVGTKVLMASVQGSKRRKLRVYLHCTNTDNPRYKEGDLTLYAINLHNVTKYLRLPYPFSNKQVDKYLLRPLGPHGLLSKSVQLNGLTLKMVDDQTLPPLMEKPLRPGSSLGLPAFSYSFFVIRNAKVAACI
Experiment: in vitro colorimetric (WST-1) heparanase inhibition assay with fondaparinux as substrate
Type: biochemical

IC50 | Compound
39.9 µM | CO[C@H]1[C@H](O)[C@@H](NS(=O)(=O)O)[C@@H](O[C@H]2[C@H](O)[C@@H](O)[C@H](O[C@H]3[C@H](O)[C@@H](NS(=O)(=O)O)[C@@H]4OC[C@H]3O4)O[C@@H]2C(=O)O)O[C@@H]1COS(=O)(=O)O [compound 1]
2.65 µM | CO[C@H]1[C@H](O)[C@@H](NS(=O)(=O)O)[C@@H](O[C@@H](CO)[C@H](O[C@H](CO)O[C@H]2[C@H](O)[C@@H](NS(=O)(=O)O)[C@@H]3OC[C@H]2O3)C(=O)O)O[C@@H]1COS(=O)(=O)O [compound 2, sodium(2S,3S)-4-hydroxy-2-((R)-2-hydroxy-1-(((1R,2S,3R,4R,5R)-3-hydroxy-4-(sulfonatoamino)-6,8-dioxabicyclo[3.2.1]octan-2-yl)oxy)ethoxy)-3-(((2R,3R,4R,5S,6R)-4-hydroxy-5-methoxy-3-(sulfonatoamino)-6-((sulfonatooxy)methyl)tetrahydro-2H-pyran-2-yl)oxy)butanoate]
